The source made the active and inactive calls. The calls are words filed in the database; no cut-off is given here.
How the values were obtained:
[1] = Induction of ROS generation in methanol solution assessed as increase in singlet oxygen level by measuring reduction in ABDA absorption peak at 10 uM irradiated with 650 nm 10 mW/cm2 light for upto 9 mins by ABDA probe based UV-vis absorption spectra analysis; assay type: functional
[2] = Induction of ROS generation in methanol solution assessed as reduction in DPBF absorption peak at 10 uM irradiated with 650 nm 10 mW/cm2 light for upto 9 mins by DPBF probe based UV-vis absorption spectra analysis; assay type: functional
[3] = Induction of ROS generation in methanol solution assessed as increase in superoxide anion radical level by measuring increase in DHR123 fluorescence intensity at 10 uM irradiated with 650 nm 10 mW/cm2 light for upto 15 mins by DHR123 probe based fluorescence spectra analysis; assay type: functional
SK-MEL-28 [4] = experiment: (§1) Cytotoxicity against human SK-MEL-28 cells assessed as reduction in cell viability at 0.008 to 1 uM preincubated for 24 hrs under normoxic condition followed by media removal and irradiated with 650 nm 10 mW/cm2 light for 15 mins under normoxic condition prior to media replacement and measured after 24 hrs by MTT assay; assay type: functional, cell-based; details: dose 0.008-1 µM
SK-MEL-28 [5] = experiment: as §1, with “hypoxic” for “normoxic”; assay type: functional, cell-based; details: dose 0.008-1 µM
SK-MEL-28 [6] = experiment: as §1, with “viability” for “viability at 0.008 to 1 uM”, “hypoxic” for “normoxic”; assay type: functional, cell-based; details: SK-MEL-28, light or radiation study
SK-MEL-28 [7] = experiment: as §1, with “viability” for “viability at 0.008 to 1 uM”; assay type: functional, cell-based; details: SK-MEL-28, light or radiation study
SK-MEL-28 [8] = experiment: Cytotoxicity against human SK-MEL-28 cells assessed as reduction in cell viability by MTT assay; assay type: functional, cell-based

| SMILES | Activity [1] | Activity [2] | Activity [3] | Activity (SK-MEL-28 [4]) | Activity (SK-MEL-28 [5]) | IC50 (SK-MEL-28 [6]) | IC50 (SK-MEL-28 [7]) | IC50 (SK-MEL-28 [8]) |
| --- | --- | --- | --- | --- | --- | --- | --- | --- |
| CCN(CC)c1ccc2nc3c4ccccc4/c(=N\CCCCCCn4cc(CCC(=O)Nc5cccc(-c6cn(Cc7ccc(-c8ccc(OC)nc8)cc7)nn6)c5)nn4)cc-3sc2c1 | inactive | Active | Active | – | – | – | – | – |
| CCN(CC)c1ccc2nc3c4ccccc4/c(=N\CCCCCCn4cc(CCCCNC(=O)c5cc(Oc6ccc(NC(=O)Nc7ccc(Cl)c(C(F)(F)F)c7)cc6)ccn5)nn4)cc-3sc2c1 | inactive | Active | Active | Active | Active | – | – | – |
| CCN(CC)c1ccc2nc3c4ccccc4/c(=N\CCCCCCN)cc-3sc2c1 | inactive | Active | Active | – | – | > 20 µM | 14.2 µM | – |
| CCN(CC)c1ccc2nc3c4ccccc4/c(=N\CCCCCC(=O)Nc4cccc(-c5cn(Cc6ccc(-c7ccc(OC)nc7)cc6)nn5)c4)cc-3sc2c1 | inactive | Active | Active | – | – | – | – | – |
| CCN(CC)c1ccc2nc3c4ccccc4/c(=N\CCCCCCNC(=O)CCC(=O)Nc4cccc(-c5cn(Cc6ccc(-c7ccc(OC)nc7)cc6)nn5)c4)cc-3sc2c1 | inactive | Active | Active | – | – | – | – | – |
| CCN(CC)c1ccc2nc3c4ccccc4/c(=N\CCCCCCN=[N+]=[N-])cc-3sc2c1 | inactive | Active | Active | – | – | – | – | – |
| CCN(CC)c1ccc2nc3c4ccccc4/c(=N\CCCCCCNC(=O)CC(=O)Nc4cccc(-c5cn(Cc6ccc(-c7ccc(OC)nc7)cc6)nn5)c4)cc-3sc2c1 | inactive | Active | Active | – | – | – | – | – |
| CCN(CC)c1ccc2nc3c4ccccc4/c(=N\CCCCCC(=O)NCCCNC(=O)c4cc(Oc5ccc(NC(=O)Nc6ccc(Cl)c(C(F)(F)F)c6)cc5)ccn4)cc-3sc2c1 | inactive | Active | Active | Active | Active | – | – | – |
| CCN(CC)c1ccc2nc3c4ccccc4/c(=N\CCCCCCn4cc(CCNC(=O)c5cc(Oc6ccc(NC(=O)Nc7ccc(Cl)c(C(F)(F)F)c7)cc6)ccn5)nn4)cc-3sc2c1 | inactive | Active | Active | Active | Active | – | – | – |
| CCN(CC)c1ccc2nc3c4ccccc4/c(=N\CCCCCCn4cc(CCCC(=O)Nc5cccc(-c6cn(Cc7ccc(-c8ccc(OC)nc8)cc7)nn6)c5)nn4)cc-3sc2c1 | inactive | Active | Active | – | – | – | – | – |
| CCN(CC)c1ccc2nc3c4ccccc4/c(=N\CCCCCC(=O)O)cc-3sc2c1 | inactive | Active | Active | – | – | – | – | – |
| CNC(=O)c1cc(Oc2ccc(NC(=O)Nc3ccc(Cl)c(C(F)(F)F)c3)cc2)ccn1 [SORAFENIB] | – | – | – | – | – | – | – | 9.49 µM |
| CCN(CC)c1ccc2nc3c4ccccc4/c(=N\CCCCCCn4cc(CNC(=O)c5cc(Oc6ccc(NC(=O)Nc7ccc(Cl)c(C(F)(F)F)c7)cc6)ccn5)nn4)cc-3sc2c1 | inactive | Active | Active | Active | Active | – | – | – |
| CCN(CC)c1ccc2nc3c4ccccc4/c(=N\CCCCCC(=O)NCCNC(=O)c4cc(Oc5ccc(NC(=O)Nc6ccc(Cl)c(C(F)(F)F)c6)cc5)ccn4)cc-3sc2c1 | inactive | Active | Active | Active | Active | – | – | – |
